Test results published in the NIST ThermoML archive (doi:10.1016/j.jct.2016.01.019).
Numbers after ± are expanded uncertainties.

Assay: refractive index (other wavelength) (dimensionless); xn = mol fraction of the nth substance listed
Conditions: 94.64 kPa, Liquid, Standard Abbe refractometry, x1 = 1

CC(O)CO (stereo not drawn) [1,2-propanediol] + OCCCO
refractive index
Conditions	Wavelength=404.7 nm	Wavelength=435.8 nm	Wavelength=486.1 nm	Wavelength=546.1 nm	Wavelength=587.6 nm	Wavelength=632.8 nm	Wavelength=644 nm	Wavelength=706.5 nm
293.15 K	1.445 ± 0.002	1.44204 ± 0.002	1.43722 ± 0.002	1.43406 ± 0.002	1.43227 ± 0.002	1.43023 ± 0.002	1.43008 ± 0.002	1.42866 ± 0.002
298.15 K	1.4429 ± 0.002	1.43967 ± 0.002	1.43566 ± 0.002	1.43245 ± 0.002	1.4305 ± 0.002	1.429 ± 0.002	1.4289 ± 0.002	1.42701 ± 0.002
303.15 K	1.44135 ± 0.002	1.43785 ± 0.002	1.43417 ± 0.002	1.43096 ± 0.002	1.42927 ± 0.002	1.42774 ± 0.002	1.42734 ± 0.002	1.42571 ± 0.002
308.15 K	1.43955 ± 0.002	1.43622 ± 0.002	1.43239 ± 0.002	1.42919 ± 0.002	1.42752 ± 0.002	1.426 ± 0.002	1.42565 ± 0.002	1.42397 ± 0.002
313.15 K	1.43771 ± 0.002	1.43437 ± 0.002	1.43055 ± 0.002	1.42738 ± 0.002	1.42572 ± 0.002	1.4242 ± 0.002	1.42386 ± 0.002	1.42219 ± 0.002
318.15 K	1.43584 ± 0.002	1.43252 ± 0.002	1.42875 ± 0.002	1.42557 ± 0.002	1.42392 ± 0.002	1.42243 ± 0.002	1.42208 ± 0.002	1.42043 ± 0.002
